Data reported in PubChem BioAssay (NCI).
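Where inhibition never reached the appropriate level, the endpoint shown equals the highest concentration tested. Otherwise, values were interpolated linearly from a five-concentration, 48-hour dose response in 96-well plates. The concentration for full growth arrest is given as TGI.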

Tests used:
Assay in all cases: inhibition of tumour cell growth, NCI panel, 48 h
[1] = tested on: SW-620 colon
[2] = tested on: MCF7 breast
[3] = tested on: HOP-62 NSCLC
[4] = tested on: A498 renal
[5] = tested on: UACC-62 melanoma
[6] = tested on: CAKI-1 renal
[7] = tested on: OVCAR-4 ovarian
[8] = tested on: T-47D breast
[9] = tested on: HCC-2998 colon
[10] = tested on: EKVX NSCLC
[11] = tested on: OVCAR-5 ovarian
[12] = tested on: SR leukemia
[13] = tested on: HS 578T breast
[14] = tested on: NCI/ADR-RES ovarian
[15] = tested on: K-562 leukemia
[16] = tested on: HL-60(TB) leukemia
[17] = tested on: SK-OV-3 ovarian
[18] = tested on: UACC-257 melanoma
[19] = tested on: LOX IMVI melanoma
[20] = tested on: HT29 colon
[21] = tested on: ACHN renal
[22] = tested on: TK-10 renal
[23] = tested on: SF-268 CNS
[24] = tested on: M14 melanoma
[25] = tested on: DU-145 prostate
[26] = tested on: OVCAR-3 ovarian
[27] = tested on: MDA-MB-231 breast
[28] = tested on: HCT-15 colon
[29] = tested on: IGROV1 ovarian
[30] = tested on: NCI-H23 lung
[31] = tested on: SN12C renal
[32] = tested on: UO-31 renal
[33] = tested on: SNB-19 CNS
[34] = tested on: MALME-3M melanoma
[35] = tested on: SF-295 CNS
[36] = tested on: MDA-N
[37] = tested on: A549 NSCLC
[38] = tested on: OVCAR-8 ovarian
[39] = tested on: CCRF-CEM leukemia
[40] = tested on: SF-539 CNS
[41] = tested on: 786-0 renal
[42] = tested on: MDA-MB-435
[43] = tested on: NCI-H522 lung
[44] = tested on: KM12 colon
[45] = tested on: HCT-116 colon
[46] = tested on: HOP-92 NSCLC
[47] = tested on: SK-MEL-5 melanoma
[48] = tested on: U251 CNS
[49] = tested on: SK-MEL-2 melanoma
[50] = tested on: SNB-75 CNS
[51] = tested on: PC-3 prostate
[52] = tested on: MOLT-4 leukemia
[53] = tested on: NCI-H460 lung
[54] = tested on: SK-MEL-28 melanoma
[55] = tested on: NCI-H226 lung
[56] = tested on: BT-549 breast
[57] = tested on: RPMI-8226 leukemia
[58] = tested on: RXF 393 renal
[59] = tested on: COLO 205 colon

For O=C(/C=C/c1cccc(Br)c1)c1ccc(Cl)cc1, the TGI [1] was 13.3 µM, the TGI [2] was 16.3 µM and the TGI [3] was 35.9 µM. It also gave a TGI [4] of 26.5 µM, a TGI [5] of 29 µM and a TGI [6] of 40.1 µM. It also gave a TGI [7] of 32.1 µM, a TGI [8] of 32.1 µM and a TGI [9] of 33.7 µM. The TGI [10] was 29.7 µM, the TGI [11] was 30.6 µM and the TGI [12] was 20.4 µM. It also gave a TGI [13] of 57.3 µM, a TGI [14] of 59.2 µM and a TGI [15] of 45.7 µM. For the same compound, the TGI [16] was 44.5 µM, the TGI [17] was 43.6 µM and the TGI [18] was 32.1 µM. For the same compound, the TGI [19] was 28 µM, the TGI [20] was 24.5 µM and the TGI [21] was 30.4 µM. For the same compound, the TGI [22] was 27.2 µM, the TGI [23] was 34.1 µM and the TGI [24] was 28.1 µM. The TGI [25] was 30.3 µM, the TGI [26] was 32.3 µM and the TGI [27] was 35.2 µM. The TGI [28] was 31.1 µM, the TGI [29] was 35.8 µM and the TGI [30] was 32.7 µM. It also gave a TGI [31] of 32.4 µM, a TGI [32] of 29.3 µM and a TGI [33] of 30.1 µM. It also gave a TGI [34] of 29 µM, a TGI [35] of 32.6 µM and a TGI [36] of 20 µM. It also gave a TGI [37] of 33.5 µM, a TGI [38] of 32.1 µM and a TGI [39] of 24.9 µM. For the same compound, the TGI [40] was 30.4 µM, the TGI [41] was 28.3 µM and the TGI [42] was 25.5 µM. It also gave a TGI [43] of 30.5 µM, a TGI [44] of 32.5 µM and a TGI [45] of 18 µM. The TGI [46] was 31.7 µM, the TGI [47] was 27.2 µM and the TGI [48] was 18.6 µM. The TGI [49] was 29.3 µM, the TGI [50] was 28.1 µM and the TGI [51] was 28.2 µM. It also gave a TGI [52] of 77.8 µM, a TGI [53] of 37.3 µM and a TGI [54] of 29.1 µM. For the same compound, the TGI [55] was 33.7 µM, the TGI [56] was 31.9 µM and the TGI [57] was 6.31 µM. For the same compound, the TGI [58] was 35.5 µM and the TGI [59] was 30.9 µM.
C=CN1CCN(c2ccccc2)P1(=O)Oc1ccccc1 (configuration not stated) gave a TGI [1] of over 100 µM, a TGI [2] of over 100 µM and a TGI [3] of over 100 µM. The TGI [4] was over 100 µM, the TGI [5] was over 100 µM and the TGI [6] was over 100 µM. The TGI [7] was over 100 µM, the TGI [8] was over 100 µM and the TGI [9] was over 100 µM. It also gave a TGI [10] of over 100 µM, a TGI [11] of over 100 µM and a TGI [12] of over 100 µM. It also gave a TGI [13] of over 100 µM, a TGI [14] of over 100 µM and a TGI [15] of over 100 µM. It also gave a TGI [16] of over 100 µM, a TGI [17] of over 100 µM and a TGI [18] of over 100 µM. The TGI [19] was over 100 µM, the TGI [20] was over 100 µM and the TGI [21] was over 100 µM. The TGI [22] was over 100 µM, the TGI [23] was over 100 µM and the TGI [24] was over 100 µM. For the same compound, the TGI [25] was over 100 µM, the TGI [26] was over 100 µM and the TGI [27] was over 100 µM. For the same compound, the TGI [28] was over 100 µM, the TGI [29] was over 100 µM and the TGI [30] was over 100 µM. It also gave a TGI [31] of over 100 µM, a TGI [32] of 92.8 µM and a TGI [33] of over 100 µM. It also gave a TGI [34] of over 100 µM, a TGI [35] of over 100 µM and a TGI [36] of over 100 µM. It also gave a TGI [37] of over 100 µM, a TGI [38] of over 100 µM and a TGI [39] of over 100 µM. The TGI [40] was over 100 µM, the TGI [41] was over 100 µM and the TGI [42] was over 100 µM. It also gave a TGI [43] of over 100 µM, a TGI [44] of over 100 µM and a TGI [45] of over 100 µM. The TGI [46] was over 100 µM, the TGI [47] was over 100 µM and the TGI [48] was over 100 µM. It also gave a TGI [49] of over 100 µM, a TGI [50] of over 100 µM and a TGI [51] of over 100 µM. For the same compound, the TGI [52] was over 100 µM, the TGI [53] was over 100 µM and the TGI [54] was over 100 µM. It also gave a TGI [55] of over 100 µM, a TGI [56] of over 100 µM and a TGI [57] of over 100 µM. For the same compound, the TGI [58] was over 100 µM and the TGI [59] was over 100 µM.
O=[N+]([O-])O showed a TGI [1] of over 100 µM, a TGI [2] of over 100 µM and a TGI [3] of over 100 µM. The TGI [4] was over 100 µM, the TGI [5] was over 100 µM and the TGI [6] was over 100 µM. For the same compound, the TGI [7] was over 100 µM, the TGI [8] was over 100 µM and the TGI [9] was over 100 µM. The TGI [10] was over 100 µM, the TGI [11] was over 100 µM and the TGI [12] was over 100 µM. For the same compound, the TGI [13] was over 100 µM, the TGI [14] was over 100 µM and the TGI [15] was over 100 µM. For the same compound, the TGI [16] was over 100 µM, the TGI [17] was over 100 µM and the TGI [18] was over 100 µM. It also gave a TGI [19] of over 100 µM, a TGI [20] of over 100 µM and a TGI [21] of over 100 µM. The TGI [22] was over 100 µM, the TGI [23] was over 100 µM and the TGI [24] was over 100 µM. It also gave a TGI [25] of over 100 µM, a TGI [26] of over 100 µM and a TGI [27] of over 100 µM. It also gave a TGI [28] of over 100 µM, a TGI [29] of over 100 µM and a TGI [30] of over 100 µM. For the same compound, the TGI [31] was over 100 µM, the TGI [32] was over 100 µM and the TGI [33] was over 100 µM. The TGI [34] was over 100 µM, the TGI [35] was over 100 µM and the TGI [36] was over 100 µM. It also gave a TGI [37] of over 100 µM, a TGI [38] of over 100 µM and a TGI [39] of over 100 µM. For the same compound, the TGI [40] was over 100 µM, the TGI [41] was over 100 µM and the TGI [42] was over 100 µM. It also gave a TGI [43] of over 100 µM, a TGI [44] of over 100 µM and a TGI [45] of over 100 µM. The TGI [46] was over 100 µM, the TGI [47] was over 100 µM and the TGI [48] was over 100 µM. The TGI [49] was over 100 µM, the TGI [50] was over 100 µM and the TGI [51] was over 100 µM. It also gave a TGI [52] of over 100 µM, a TGI [53] of over 100 µM and a TGI [54] of over 100 µM. The TGI [55] was over 100 µM, the TGI [56] was over 100 µM and the TGI [57] was over 100 µM. For the same compound, the TGI [58] was over 100 µM and the TGI [59] was over 100 µM.
